Data: patent US12679843B2, “Pyrrolopyrimidine amines as complement inhibitors” (BioCryst Pharmaceuticals, Inc., priority 2020, dated 2026)
pIC50: −log10 of the molar value.

molecular target: Factor D (Homo sapiens, UniProt P00746); assay: Factor D esterolytic assay (Z-Lys-SBzl thioester substrate, DTNB, 405 nm); assay type: biochemical; conditions: substrate Z-Lys-SBzl 1.29 mM, 100 mM HEPES, 500 mM NaCl, pH 7.5, 10% DMSO, tested a minimum of three times
Experimental: The IC50 value of a compound (i.e., the concentration of the compound that inhibits 50% of the enzymatic activity) was calculated according to the procedure reported in U.S. Pat. No. 6,653,340 B1, e.g., column 74 (incorporated by reference).
Specifically, the compounds were dissolved in a stock solution of DMSO at 10.0 or 100 mM. A portion of this stock solution was added to assay buffer in a final volume of 50 μL. Controls included buffer alone and enzyme solutions to which DMSO was added. Substrate was added to the reaction wells immediately or after incubation at room temperature. The reaction rates were measured spectrophotometrically by the generation of product at 405 nm for 600 sec. Background absorbance at 690 nm was measured and subtracted from the absorbance at 405 nm for each well.
The reaction rate for enzyme alone was compared to the rate of enzyme in the presence of inhibitor and the percent inhibition was calculated as shown below: Percent Inhibition=[Rate without inhibitor−Rate with inhibitor)/(Rate without inhibitor)]−100 Factor D Esterolytic Assay:
An established esterolytic assay for the measurement of Factor D activity and inhibition of Factor D activity was used (Kam, C. M.; McRae, B. J.; Harper, J. W.; Niemann, M. A.; Volanakis, J. E.; Powers, J. C. Human complement proteins D. C2, and B Active site mapping with peptide thioester substrates. J Biol. Chem. 1987, 262, 3444-3451). For this assay Z-Lys-SBzl, 1.29 mM (Kim, S.; Narayana, S. V. L; Volanakis, J. E. Mutational analysis of the substrate binding site of human complement Factor D. Biochemistry, 1994, 33, 14393-14399) was used as the substrate for Factor D ([…]). Hydrolysis of this compound by Factor D liberated a free sulfhydryl group which is then reacted with 5,5′-dithiobis(2-nitrobenzoic acid) producing an intense yellow color (Habeeb, A. F. S. A. Reaction of protein sulfhydryl groups with Ellman's Reagent. Methods in Enzymol. 1976, 25, 457-464). The assays were performed in 96 well microtiter plates and rates of hydrolysis were monitored at 405 nm on a Biotek Synergy H1 plate reader. Hydrolysis rates were reported as change in mOD/min. The assay was conducted in 100 mM HEPES, 500 mM NaCl, pH 7.5 containing 10% DMSO in a final volume of 50 μL per well.
An IC50, a compound concentration which inhibits 50% of the enzymatic activity, was calculated. Compounds in the examples were tested a minimum of three times.

Chain of Factor D (P00746 26-253): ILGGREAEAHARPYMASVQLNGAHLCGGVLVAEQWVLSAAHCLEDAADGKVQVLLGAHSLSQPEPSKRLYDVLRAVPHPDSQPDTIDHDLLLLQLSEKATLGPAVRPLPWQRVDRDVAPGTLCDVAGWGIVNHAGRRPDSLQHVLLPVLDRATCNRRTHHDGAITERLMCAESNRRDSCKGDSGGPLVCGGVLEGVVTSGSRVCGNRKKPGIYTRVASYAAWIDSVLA

| pIC50 | SMILES |
| --- | --- |
| > 7.00 | Nc1ncnc2c1c1cc(C(F)(F)F)ccc1n2CC(=O)N1C[C@H](F)C[C@H]1C(=O)Nc1cccc(Cl)n1 [Compound 246b, (2S,4R)-1-(2-(4-amino-6-(trifluoromethyl)-9H-pyrimido[4,5-b]indol-9-yl)acetyl)-N-(6-chloropyridin-2-yl)-4-fluoropyrrolidine-2-carboxamide] |
| > 7.00 | Cc1ccc(Br)nc1NC(=O)[C@@H]1C[C@@](C)(F)CN1C(=O)Cn1c2ccc(C(F)(F)F)cc2c2c(N)ncnc21 [Compound 209b, (2S,4R)-1-(2-(4-amino-6-(trifluoromethyl)-9H-pyrimido[4,5-b]indol-9-yl)acetyl)-N-(6-bromo-3-methylpyridin-2-yl)-4-fluoro-4-methylpyrrolidine-2-carboxamide] |
| > 7.00 | COc1ccc2c3c(N)ncnc3n(CC(=O)N3[C@@H]4C[C@@H]4C[C@H]3C(=O)Nc3cccc(Br)n3)c2c1 [Compound 36e, (1R,3S,5R)-2-(2-(4-amino-7-methoxy-9H-pyrimido[4,5-b]indol-9-yl)acetyl)-N-(6-bromopyridin-2-yl)-2-azabicyclo[3.1.0]hexane-3-carboxamide] |
| > 7.00 | Nc1ncnc2c1c1cc(Cl)ccc1n2CC(=O)N1[C@@H]2C[C@@H]2C[C@H]1C(=O)Nc1cccc(Br)n1 [Compound 236f, (1R,3S,5R)-2-(2-(4-amino-6-chloro-9H-pyrimido[4,5-b]indol-9-yl)acetyl)-N-(6-bromopyridin-2-yl)-2-azabicyclo[3.1.0]hexane-3-carboxamide] |
| > 7.00 | Cc1cc2c3c(N)ncnc3n(CC(=O)N3[C@@H]4C[C@@H]4C[C@H]3C(=O)Nc3cccc(Br)n3)c2cc1F [Compound 384g, (1R,3S,5R)-2-(2-(4-amino-7-fluoro-6-methyl-9H-pyrimido[4,5-b]indol-9-yl)acetyl)-N-(6-bromopyridin-2-yl)-2-azabicyclo[3.1.0]hexane-3-carboxamide] |
| > 7.00 | COc1cc2c(cc1F)c1c(N)ncnc1n2CC(=O)N1[C@@H]2C[C@@H]2C[C@H]1C(=O)Nc1cccc(Br)n1 [Compound 383g, (1R,3S,5R)-2-(2-(4-amino-6-fluoro-7-methoxy-9H-pyrimido[4,5-b]indol-9-yl)acetyl)-N-(6-bromopyridin-2-yl)-2-azabicyclo[3.1.0]hexane-3-carboxamide] |
| > 7.00 | C[C@@]12C[C@@H](C(=O)Nc3cccc(Br)n3)N(C(=O)Cn3c4ccc(C(N)=O)cc4c4c(N)ncnc43)[C@@H]1C2 [Compound 203a, 4-amino-9-(2-((1R,3S,5R)-3-((6-bromopyridin-2-yl)carbamoyl)-5-methyl-2-azabicyclo[3.1.0]hexan-2-yl)-2-oxoethyl)-9H-pyrimido[4,5-b]indole-6-carboxamide] |

Second part, the compound before the results:

| SMILES | pIC50 |
| --- | --- |
| Nc1c(C(=O)O)cnc2c1ccn2CC(=O)N1C[C@H](F)C[C@H]1C(=O)NCc1cccc(Cl)c1F [Compound 151a, 4-amino-1-(2-((2S,4R)-2-((3-chloro-2-fluorobenzyl)carbamoyl)-4-fluoropyrrolidin-1-yl)-2-oxoethyl)-1H-pyrrolo[2,3-b]pyridine-5-carboxylic acid] | 6.00 to 7.00 |
| C[C@@]12C[C@@H](C(=O)Nc3cccc(Br)n3)N(C(=O)Cn3c4cnccc4c4c(N)ncnc43)[C@@H]1C2 [Compound 182a, (1R,3S,5R)-2-(2-(4-amino-9H-pyrido[4′,3′:4,5]pyrrolo[2,3-d]pyrimidin-9-yl)acetyl)-N-(6-bromopyridin-2-yl)-5-methyl-2-azabicyclo[3.1.0]hexane-3-carboxamide] | > 7.00 |
| Cc1ncc(-c2cc(C)c3c(c2)c2c(N)ncnc2n3CC(=O)N2[C@H](C(=O)Nc3nc(Br)ccc3C)C[C@@]3(C)C[C@@H]23)cn1 [Compound 311a, (1R,3S,5R)-2-(2-(4-amino-8-methyl-6-(2-methylpyrimidin-5-yl)-9H-pyrimido[4,5-b]indol-9-yl)acetyl)-N-(6-bromo-3-methylpyridin-2-yl)-5-methyl-2-azabicyclo[3.1.0]hexane-3-carboxamide] | > 7.00 |
| COC(=O)c1cccc2c3c(N)ncnc3n(CC(=O)N3[C@H](C(=O)Nc4cccc(Br)n4)C[C@@]4(C)C[C@@H]34)c12 [Compound 223a, methyl 4-amino-9-(2-((1R,3S,5R)-3-((6-bromopyridin-2-yl)carbamoyl)-5-methyl-2-azabicyclo[3.1.0]hexan-2-yl)-2-oxoethyl)-9H-pyrimido[4,5-b]indole-8-carboxylate] | > 7.00 |
| COc1cccc(-c2cc(C)c3c(c2)c2c(N)ncnc2n3CC(=O)N2[C@@H]3C[C@@H]3C[C@H]2C(=O)Nc2cccc(Br)n2)c1 [Compound 341c, (1R,3S,5R)-2-(2-(4-amino-6-(3-methoxyphenyl)-8-methyl-9H-pyrimido[4,5-b]indol-9-yl)acetyl)-N-(6-bromopyridin-2-yl)-2-azabicyclo[3.1.0]hexane-3-carboxamide] | > 7.00 |
| Nc1ncnc2c1ncn2CC(=O)N1[C@@H]2C[C@@H]2C[C@H]1C(=O)Nc1cccc(OC(F)(F)F)c1 [Compound 107b, (1R,3S,5R)-2-(2-(6-amino-9H-purin-9-yl)acetyl)-N-(3-(trifluoromethoxy)phenyl)-2-azabicyclo[3.1.0]hexane-3-carboxamide] | < 6.00 |
| Cc1cc(-c2ccnc(C(F)(F)F)c2)cc2c3c(N)ncnc3n(CC(=O)N3[C@H](C(=O)Nc4cccc(Br)n4)C[C@@]4(C)C[C@@H]34)c12 [Compound 355a, (1R,3S,5R)-2-(2-(4-amino-8-methyl-6-(2-(trifluoromethyl)pyridin-4-yl)-9H-pyrimido[4,5-b]indol-9-yl)acetyl)-N-(6-bromopyridin-2-yl)-5-methyl-2-azabicyclo[3.1.0]hexane-3-carboxamide] | > 7.00 |
| COC(=O)c1cccc2c1c1c(N)ncnc1n2CC(=O)N1[C@H](C(=O)Nc2cccc(Br)n2)C[C@@]2(C)C[C@@H]12 [Compound 221c, methyl 4-amino-9-(2-((1R,3S,5R)-3-((6-bromopyridin-2-yl)carbamoyl)-5-methyl-2-azabicyclo[3.1.0]hexan-2-yl)-2-oxoethyl)-9H-pyrimido[4,5-b]indole-5-carboxylate] | > 7.00 |
| O=C(O)c1cnc2c(ccn2CC(=O)N2[C@@H]3C[C@@H]3C[C@H]2C(=O)Nc2cccc(Br)n2)c1 [Compound 128a, 1-(2-((1R,3S,5R)-3-((6-bromopyridin-2-yl)carbamoyl)-2-azabicyclo[3.1.0]hexan-2-yl)-2-oxoethyl)-1H-pyrrolo[2,3-b]pyridine-5-carboxylic acid] | < 6.00 |
| C[C@@]12C[C@@H](C(=O)Nc3cccc(Br)n3)N(C(=O)Cn3c4ccc(-c5ccccc5)cc4c4c(N)ncnc43)[C@@H]1C2 [Compound 270a, (1R,3S,5R)-2-(2-(4-amino-6-phenyl-9H-pyrimido[4,5-b]indol-9-yl)acetyl)-N-(6-bromopyridin-2-yl)-5-methyl-2-azabicyclo[3.1.0]hexane-3-carboxamide] | > 7.00 |
| Nc1ncnc2c1c1cc(-c3ccc(F)cc3)ccc1n2CC(=O)N1[C@@H]2C[C@@H]2C[C@H]1C(=O)Nc1cccc(Br)n1 [Compound 335c, (1R,3S,5R)-2-(2-(4-amino-6-(4-fluorophenyl)-9H-pyrimido[4,5-b]indol-9-yl)acetyl)-N-(6-bromopyridin-2-yl)-2-azabicyclo[3.1.0]hexane-3-carboxamide] | > 7.00 |
| CSc1cn(CC(=O)N2[C@@H]3C[C@@H]3C[C@H]2C(=O)Nc2cccc(Br)n2)c2ncnc(N)c12 [Compound 154e, (1R,3S,5R)-2-(2-(4-amino-5-(methylthio)-7H-pyrrolo[2,3-d]pyrimidin-7-yl)acetyl)-N-(6-bromopyridin-2-yl)-2-azabicyclo[3.1.0]hexane-3-carboxamide] | 6.00 to 7.00 |
| C[C@@H]1C[C@@H](C(=O)NCc2cccc(Cl)c2F)N(C(=O)Cn2cnc3c(N)ncnc32)C1 [Compound 121d, (2S,4R)-1-(2-(6-amino-9H-purin-9-yl)acetyl)-N-(3-chloro-2-fluorobenzyl)-4-methylpyrrolidine-2-carboxamide] | < 6.00 |
| C[C@@]12C[C@@H](C(=O)Nc3cccc(Br)n3)N(C(=O)Cn3c4ccc(-c5ccco5)cc4c4c(N)ncnc43)[C@@H]1C2 [Compound 336c, (1R,3S,5R)-2-(2-(4-amino-6-(furan-2-yl)-9H-pyrimido[4,5-b]indol-9-yl)acetyl)-N-(6-bromopyridin-2-yl)-5-methyl-2-azabicyclo[3.1.0]hexane-3-carboxamide] | > 7.00 |
| Cc1ccc2c(c1)c1c(N)ncnc1n2C(C)C(=O)N1[C@@H]2C[C@@H]2C[C@H]1C(=O)Nc1cccc(Br)n1 (single isomer, unassigned) [Compound 22c] | < 6.00 |
